Columns and labels:
Assay in all cases: selective drug sensitivity score (sDSS, relative to normal bone marrow) (sDSS (score)); higher = more potent and effective on the cell line relative to normal bone marrow cells
Conditions in all cases: 72 h
CCRF-HSB2 = system: CCRF-HSB2
COG-LL-332h = system: COG-LL-332h
P30-OHKUBO = system: P30-OHKUBO
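Note: ALL cell lines in 384-well plates, five doses spanning 10,000-fold, each plate scaled between vehicle and 100 µmol/L benzalkonium chloride controls, sDSS an adapted area-under-curve metric.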

SMILES	selective drug sensitivity score (CCRF-HSB2)	selective drug sensitivity score (COG-LL-332h)	selective drug sensitivity score (P30-OHKUBO)
CC(C)Oc1ccc(C(=O)N[C@H](CNC(=O)CN(C)C)Cc2ccc(-c3cn4cccc([C@H](C)O)c4n3)cc2)cc1Cl (top concentration 10000 nM)	11	16.5	12.8
CCn1c(-c2nonc2N)nc2cnc(Oc3cccc(NC(=O)c4ccc(OCCN5CCOCC5)cc4)c3)cc21 (top concentration 10000 nM)	13.6	11	10.9
CC(C)(C#N)c1cc(Cn2cncn2)cc(C(C)(C)C#N)c1 [Anastrozole] (top concentration 10000 nM)	0	0	0
Cc1sc2c(c1C)C(c1ccc(Cl)cc1)=N[C@@H](CC(=O)Nc1ccc(O)cc1)c1nnc(C)n1-2 [Birabresib] (top concentration 10000 nM)	-0.98	-4.28	7.22
Nc1ccn([C@@H]2O[C@H](CO)[C@@H](O)[C@@H]2O)c(=O)n1 [Cytarabine] (top concentration 10000 nM)	28.7	25.5	26.2
COc1cccc2c1C(=O)c1c(O)c3c(c(O)c1C2=O)C[C@@](O)(C(C)=O)C[C@@H]3O[C@H]1C[C@H](N)[C@H](O)[C@H](C)O1 [Daunorubicin] (top concentration 1000 nM)	12.5	12.1	6.46
Nc1ncn([C@H]2C[C@H](O)[C@@H](CO)O2)c(=O)n1 [Decitabine] (top concentration 10000 nM)	1.14	4.34	4.64
CCN(CC)C(=S)SSC(=S)N(CC)CC [Disulfiram(+CuCl2)] (top concentration 50000 nM)	-2.12	-0.52	0.78
Nc1nc(F)nc2c1ncn2[C@@H]1O[C@H](CO)[C@@H](O)[C@@H]1O [Fludarabine] (top concentration 10000 nM)	1.5	0.6	7.7
Nc1nc(OCc2cc(Br)cs2)c2[nH]cnc2n1 [Lomeguatrib] (top concentration 10000 nM)	0	0	0
Cc1cc(OCc2nnc(SC3CCCC3)n2-c2cccnc2)ccc1-c1ccc(S(C)(=O)=O)cc1 [NMS-873] (top concentration 10000 nM)	10.5	5.86	4.66
COC(=O)c1ccc2c(c1)NC(=O)/C2=C(\Nc1ccc(N(C)C(=O)CN2CCN(C)CC2)cc1)c1ccccc1 [Nintedanib] (top concentration 10000 nM)	28.6	4.44	-1.46
O=C(c1cc(Cc2n[nH]c(=O)c3ccccc23)ccc1F)N1CCN(C(=O)C2CC2)CC1 [Olaparib] (top concentration 10000 nM)	3.98	4.98	2.98
O=C(O)C(=O)O.[NH-][C@@H]1CCCC[C@H]1[NH-].[Pt+2] [Oxaliplatin] (top concentration 100000 nM)	15	14.9	14.1
CS(=O)(=O)N1CCN(Cc2cc3nc(-c4cccc5[nH]ncc45)nc(N4CCOCC4)c3s2)CC1 [Pictilisib] (top concentration 10000 nM)	4.56	0.46	13
CCOC(=O)C1=CCCC[C@H]1S(=O)(=O)Nc1ccc(F)cc1Cl [Resatorvid] (top concentration 10000 nM)	0	0	0
CO[C@H]1C[C@@H]2CC[C@@H](C)[C@@](O)(O2)C(=O)C(=O)N2CCCC[C@H]2C(=O)O[C@H]([C@H](C)C[C@@H]2CC[C@@H](OP(C)(C)=O)[C@H](OC)C2)CC(=O)[C@H](C)/C=C(\C)[C@@H](O)[C@@H](OC)C(=O)[C@H](C)C[C@H](C)/C=C/C=C/C=C/1C [Ridaforolimus] (top concentration 100 nM)	7.46	7.36	4.36
CCc1c2c(nc3ccc(O)cc13)-c1cc3c(c(=O)n1C2)COC(=O)[C@]3(O)CC [SN-38] (top concentration 10000 nM)	28	27.6	24.6
CC[C@@H](C(=O)[C@@H](C)[C@@H](O)[C@H](C)[C@@H]1O[C@@H]([C@@H](CC)C(=O)O)CC[C@@H]1C)[C@H]1O[C@]2(C=C[C@@H](O)[C@]3(CC[C@@](C)([C@H]4CC[C@](O)(CC)[C@H](C)O4)O3)O2)[C@H](C)C[C@@H]1C [Salinomycin] (top concentration 50000 nM)	0.9	-2.9	-7.8
CNC(=O)CN1CCC(Oc2cc3c(Nc4cccc(Cl)c4F)ncnc3cc2OC)CC1 [Sapitinib] (top concentration 1000 nM)	3.3	0	0
O[C@H]1CC[C@H](Nc2ncc3nc(Nc4c(F)cc(F)cc4F)n([C@H]4CCOC4)c3n2)CC1 [Tanzisertib] (top concentration 10000 nM)	0.2	0	0
CO[C@H]1C[C@@H]2CC[C@@H](C)[C@@](O)(O2)C(=O)C(=O)N2CCCC[C@H]2C(=O)O[C@H]([C@H](C)C[C@@H]2CC[C@@H](OC(=O)C(C)(CO)CO)[C@H](OC)C2)CC(=O)[C@H](C)/C=C(\C)[C@@H](O)[C@@H](OC)C(=O)[C@H](C)C[C@H](C)/C=C/C=C/C=C/1C [Temsirolimus] (top concentration 100 nM)	7.76	8.46	6.36
COc1cc([C@@H]2c3cc4c(cc3[C@@H](O[C@@H]3O[C@@H]5CO[C@@H](c6cccs6)O[C@H]5[C@H](O)[C@H]3O)[C@H]3COC(=O)[C@H]23)OCO4)cc(OC)c1O [Teniposide] (top concentration 10000 nM)	0	0	0
Oc1nc(-c2ccc(C(F)(F)F)cc2)nc2c1CSCC2 [XAV939] (top concentration 10000 nM)	0.36	-0.14	-0.14

Reference: the supplement of paper PMC8967900
